Laboratory results as given in patent publication US9920061B2, “Imidazo[1,5-A]pyrimidinyl carboxamide compounds and their use in the treatment of medical disorders” (Lysosomal Therapeutics Inc., priority 2016, dated 2018).
Converted amounts (≈) assume the structure as drawn. Like-named read-outs stand apart in the source and are kept apart here.

Tests used:
[1] = Compound solubility in water; assay type: physicochemical
[2] = target: T1, glucocerebrosidase (Gcase) (Homo sapiens, UniProt P04062); assay: Glucocerebrosidase (Gcase) activation assay, 4-methylumbelliferyl-beta-D-glucopyranoside substrate, with saposin C; assay type: biochemical
T1 sequence (P04062 40-536): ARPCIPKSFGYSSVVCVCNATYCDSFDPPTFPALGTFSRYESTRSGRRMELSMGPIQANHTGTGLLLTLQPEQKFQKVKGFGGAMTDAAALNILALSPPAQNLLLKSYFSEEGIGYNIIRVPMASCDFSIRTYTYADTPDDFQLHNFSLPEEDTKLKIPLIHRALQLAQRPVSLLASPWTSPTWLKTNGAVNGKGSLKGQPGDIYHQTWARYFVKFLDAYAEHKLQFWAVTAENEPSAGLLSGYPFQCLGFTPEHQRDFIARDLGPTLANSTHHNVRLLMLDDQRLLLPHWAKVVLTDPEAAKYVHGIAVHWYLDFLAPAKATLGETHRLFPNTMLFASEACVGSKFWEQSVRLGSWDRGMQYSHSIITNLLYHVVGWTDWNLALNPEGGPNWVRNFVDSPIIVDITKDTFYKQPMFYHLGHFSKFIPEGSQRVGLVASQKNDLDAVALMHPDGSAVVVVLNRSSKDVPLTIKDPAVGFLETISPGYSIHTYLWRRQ
Procedure: The ability of exemplary compounds to activate glucocerebrosidase (Gcase) was measured.
A 484 μL aliquot of a 1.0 mg/mL solution of phosphatidylserine (PS) (Sigma P7769) in chloroform was evaporated under a stream of nitrogen for 1 hour. The lipid film was dissolved over 4 minutes of vigorous vortexing in 40 mL of 176 mM K2HPO4/50 mM citric acid (pH 4.7) containing 7.5 μL of triton X-100, resulting in a mixed micellar preparation with a composition of 0.32 mM triton and 0.37 mol % PS. 4-Methylumbelliferyl-beta-D-glucopyranoside (ACROS-337025000) was dissolved in the micellar solution to a final concentration of 2 mM for use as the reaction substrate.
Test compounds were diluted to the desired concentrations with dimethylsulfoxide (DMSO) from 10 mM stocks, and 0.41 μL of the DMSO compound mixture was added to 100 μL of micellar solution containing 10 nM GCase and 100 nM saposin C (Enzo ALX-201-262-C050). Pre-incubation was allowed to occur for 30 minutes at room temperature, after which the reaction was initiated by combining 25 μL of substrate solution with 25 μL of compound/GCase/saposin mixture. The reaction proceeded for 15 minutes at room temperature and was stopped by adding 150 μL of 1M glycine, pH 12.5. The endpoint of the reaction was monitored by measuring fluorescence intensity (excitation: 365 nm; emission: 440 nm) on a SpectraMax i3 instrument (Molecular Devices). Test compounds were screened at 1.0 and 0.1 μM final concentration, and subsequent 8-point dose response curves were obtained using 3-fold dilutions from a maximum final concentration of […].

[3] = 0.1 μM test compound, read-out: Percent Gcase Activation 0.1 μM Test Compound
[4] = 1 μM test compound, read-out: Percent Gcase Activation 1 μM Test Compound
[5] = test compound at 0.1 μM, read-out: Percent Gcase Activation, 0.1 μM Test Compound
[6] = test compound at 1.0 μM, read-out: Percent Gcase Activation, 1 μM Test Compound

| SMILES | solubility [1] | activation at 0.1 µM [2, 3] | activation at 1 µM [2, 4] | solubility ([1]; in water) | activation at 0.1 µM [2, 5] | activation at 1 µM [2, 6] |
| --- | --- | --- | --- | --- | --- | --- |
| CCCCO[C@H]1C[C@H]2CC[C@@H](C1)[C@H]2NC(=O)c1ncn2c(C)cc(-c3cccnc3)nc12 [III-63] | 3.5 µg/mL (≈ 8.07 µM) | > 20% | > 60% |  |  |  |
| CCc1cc(Oc2ccc(F)cc2)nc2c(C(=O)N[C@@H](C)C3CC3)ncn12 [III-166] | 10.8 µg/mL (≈ 29.3 µM) | < 10% | 30 to 60% |  |  |  |
| Cc1cc(Cl)nc2c(C(=O)NC(c3ccc(F)cc3)C(F)(F)F)ncn12 (stereo not drawn) [III-24] | 10.4 µg/mL (≈ 26.9 µM) | 10 to 20% | > 60% |  |  |  |
| C#CC(C)(C)NC(=O)c1ncn2c(C)cc(-c3cccc4c3OCO4)nc12 [IV-27] |  |  |  | 1.1 µg/mL (≈ 3.04 µM) | < 10% | < 30% |
| CCc1cc(N2CCCC(F)(F)C2)nc2c(C(=O)NC(C)(C)C3CC3)ncn12 [III-136] | 17.2 µg/mL (≈ 43.9 µM) | > 20% | > 60% |  |  |  |
| Cc1cc(C)n2cnc(C(=O)NC(C)(C)CC3CC3)c2n1 [III-46] | 12 µg/mL (≈ 41.9 µM) | < 10% | > 60% |  |  |  |
| Cc1cc(C)n2cnc(C(=O)NC(C)C(C)C3CC3)c2n1 (stereo not drawn) [III-47] | 24.2 µg/mL (≈ 84.5 µM) | < 10% | 30 to 60% |  |  |  |
| COc1c(F)cccc1-c1cc(C)n2cnc(C(=O)NC(C3CC3)C(F)(F)F)c2n1 (stereo not drawn) [IV-63] |  |  |  | 3.1 µg/mL (≈ 7.34 µM) | 10 to 20% | > 60% |
| CCc1cc(N2CCN(CC(F)(F)F)C2=O)nc2c(C(=O)NC(C3CC3)C(F)(F)F)ncn12 (stereo not drawn) [IV-90] |  |  |  | 25.6 µg/mL (≈ 53.5 µM) | 10 to 20% | > 60% |
| Cc1cc(-c2ccc(F)cc2)nc2c(C(=O)NC(C)C3CCCO3)ncn12 (stereo not drawn) [III-80] | 14.5 µg/mL (≈ 39.4 µM) | < 10% | < 30% |  |  |  |
| Cc1cc(-c2cccc3c2OCO3)nc2c(C(=O)N[C@H](C)C3CC3)ncn12 [IV-31] |  |  |  | 1.4 µg/mL (≈ 3.84 µM) | 10 to 20% | > 60% |
| COc1cc(C)nc2c(C(=O)NC(c3ccc(F)cc3)C(F)(F)F)ncn12 (stereo not drawn) [III-20] | 6.9 µg/mL (≈ 18 µM) | < 10% | > 60% |  |  |  |
| Cc1cc(C)n2cnc(C(=O)NC(C)(C)C3CC4(CCC4)C3)c2n1 [III-25] | 1.5 µg/mL (≈ 4.59 µM) | > 20% | > 60% |  |  |  |
| Cc1cc(C)n2cnc(C(=O)NC(C)(C)C3CC3)c2n1 [III-8] | 25.2 µg/mL (≈ 92.5 µM) | < 10% | < 30% |  |  |  |
| Cc1cc(C)n2cnc(C(=O)NC(C3CC3)C(F)(F)F)c2n1 (stereo not drawn) [III-14] | 37.8 µg/mL (≈ 121 µM) | < 10% | 30 to 60% |  |  |  |
| Cc1cc(-c2cccn3cnnc23)nc2c(C(=O)NC(C3CC3)C(F)(F)F)ncn12 (stereo not drawn) [IV-42] |  |  |  | 2.1 µg/mL (≈ 5.06 µM) | < 10% | > 60% |
| CCOc1cccc(-c2cc(C)n3cnc(C(=O)NC(C4CC4)C(F)(F)F)c3n2)n1 (stereo not drawn) [IV-102] |  |  |  | 7.8 µg/mL (≈ 18.6 µM) | > 20% | > 60% |
| Cc1cc(-c2ncccn2)nc2c(C(=O)NC(C)(C)C3CC3)ncn12 [III-95] | 6.4 µg/mL (≈ 19 µM) | < 10% | < 30% |  |  |  |
| Cc1cc(N2CCCC(F)(F)C2)nc2c(C(=O)NC(C3CC3)C(F)(F)F)ncn12 (stereo not drawn) [III-138] | 17.2 µg/mL (≈ 41.2 µM) | > 20% | > 60% |  |  |  |
| Cc1cc(-c2ccc3c(c2)OCO3)nc2c(C(=O)N[C@@H](C)C3CC3)ncn12 [IV-28] |  |  |  | 1.1 µg/mL (≈ 3.02 µM) | > 20% | > 60% |
| Cc1cc(N2CCCC(F)(F)C2)nc2c(C(=O)N[C@@H](C)C3CC3)ncn12 [III-114] | 26 µg/mL (≈ 71.5 µM) | 10 to 20% | > 60% |  |  |  |
| Cc1cc(-c2ccnc(Cl)c2)nc2c(C(=O)N[C@@H](C)C3CC3)ncn12 [III-106] | 12.8 µg/mL (≈ 36 µM) | < 10% | 30 to 60% |  |  |  |
| Cc1cc(-c2cccc(F)c2)nc2c(C(=O)NC(C)C3CC3)ncn12 (stereo not drawn) [III-50] | 33.3 µg/mL (≈ 98.4 µM) | > 20% | > 60% |  |  |  |

| SMILES | solubility [1] | activation at 0.1 µM [2, 3] | activation at 1 µM [2, 4] | solubility ([1]; in water) | activation at 0.1 µM [2, 5] | activation at 1 µM [2, 6] |
| --- | --- | --- | --- | --- | --- | --- |
| Cc1cc(OC2CC(F)(F)C2)nc2c(C(=O)NC(C3CC3)C(F)(F)F)ncn12 (stereo not drawn) [III-158] | 21.9 µg/mL (≈ 54.2 µM) | < 10% | 30 to 60% |  |  |  |
| Cc1cc(Oc2cccnc2)nc2c(C(=O)N[C@@H](C)C3CC3)ncn12 [III-122] | 32.8 µg/mL (≈ 97.2 µM) | < 10% | < 30% |  |  |  |
| Cc1cc(-c2ccns2)nc2c(C(=O)N[C@@H](C3CC3)C(F)(F)F)ncn12 [IV-8] |  |  |  | 19.7 µg/mL (≈ 51.7 µM) | 10 to 20% | > 60% |
| Cc1cc(-c2ccc(Cl)nc2)nc2c(C(=O)N[C@@H](C)C3CC3)ncn12 [III-75] | 4.9 µg/mL (≈ 13.8 µM) | < 10% | 30 to 60% |  |  |  |
| Cc1cc(-c2cccc(C#N)c2F)nc2c(C(=O)NC(C3CC3)C(F)(F)F)ncn12 (stereo not drawn) [IV-36] |  |  |  | 0.5 µg/mL (≈ 1.2 µM) | > 20% | > 60% |
| Cc1cc(-c2ccccn2)nc2c(C(=O)N[C@@H](C)c3ccccc3F)ncn12 [III-29] | 0.9 µg/mL (≈ 2.4 µM) | 10 to 20% | > 60% |  |  |  |
| COc1cccc(-c2cc(C)n3cnc(C(=O)NC(C)(C)C)c3n2)c1 [III-127] | 1.4 µg/mL (≈ 4.14 µM) | > 20% | > 60% |  |  |  |
| Cc1cc(-c2cccc3c2OCO3)nc2c(C(=O)N[C@@H](C)C3CC3)ncn12 [IV-30] |  |  |  | 0.5 µg/mL (≈ 1.37 µM) | > 20% | > 60% |
| Cc1cc(-c2cccc(Cl)c2)nc2c(C(=O)NC(C)(C)C3CC3)ncn12 [III-162] | 0.2 µg/mL (≈ 0.542 µM) | > 20% | > 60% |  |  |  |
| Cc1cc(-c2nccs2)nc2c(C(=O)NC(C)(C)C3CC3)ncn12 [III-61] | 5.5 µg/mL (≈ 16.1 µM) | 10 to 20% | > 60% |  |  |  |
| COCCOc1cccc(-c2cc(C)n3cnc(C(=O)N[C@@H](C)C4CC4)c3n2)c1 [III-101] | 16 µg/mL (≈ 40.6 µM) | 10 to 20% | > 60% |  |  |  |
| Cc1cc(-c2cccc(-c3ncncn3)c2)nc2c(C(=O)NC(C3CC3)C(F)(F)F)ncn12 (stereo not drawn) [IV-79] |  |  |  | 0.5 µg/mL (≈ 1.1 µM) | > 20% | > 60% |
| Cc1cc(-n2ccc(Cl)n2)nc2c(C(=O)NC(C)C(F)(F)F)ncn12 (stereo not drawn) [IV-74] |  |  |  | 4.2 µg/mL (≈ 11.3 µM) | < 10% | 30 to 60% |
| Cc1cc(C)n2cnc(C(=O)N[C@@H](C)C3CC4(CCC4)C3)c2n1 [III-102] | 12.1 µg/mL (≈ 38.7 µM) | < 10% | > 60% |  |  |  |
| COc1cc(-c2ccc(F)cc2)nc2c(C(=O)N[C@@H](C)C3CC3)ncn12 [III-34] | 0.2 µg/mL (≈ 0.564 µM) | < 10% | < 30% |  |  |  |
| CCc1cc(-c2cccc(OC)n2)nc2c(C(=O)NC(C3CC3)C(F)(F)F)ncn12 (stereo not drawn) [III-149] | 0.7 µg/mL (≈ 1.67 µM) | > 20% | > 60% |  |  |  |
| CCc1cc(-c2cccc(OC)c2)nc2c(C(=O)N[C@@H](C)C3CC3)ncn12 [III-161] | 1.8 µg/mL (≈ 4.94 µM) | > 20% | > 60% |  |  |  |
| CCc1cc(N2CCC(C)(C)C2=O)nc2c(C(=O)NC(C3CC3)C(F)(F)F)ncn12 (stereo not drawn) [IV-107] |  |  |  | 29.6 µg/mL (≈ 69.9 µM) | 10 to 20% | > 60% |
| Cc1cc(-c2cnc(Cl)c(F)c2)nc2c(C(=O)N[C@@H](C)C3CC3)ncn12 [III-107] | 1.9 µg/mL (≈ 5.08 µM) | < 10% | 30 to 60% |  |  |  |
| C#Cc1cccc(C(NC(=O)c2ncn3c(C)cc(C)nc23)C(F)(F)F)c1 (stereo not drawn) [III-3] | 2.2 µg/mL (≈ 5.91 µM) | > 20% | > 60% |  |  |  |
| COc1cccc(-c2cc(C)n3cnc(C(=O)N[C@@H](C)C4CC4)c3n2)c1C#N [IV-68] |  |  |  | 0.7 µg/mL (≈ 1.86 µM) | > 20% | > 60% |
| Cc1cc(-c2cccnc2)nc2c(C(=O)NC(C)C3CC3)ncn12 (stereo not drawn) [III-43] | 31.1 µg/mL (≈ 96.8 µM) | < 10% | < 30% |  |  |  |
| Cc1cc(-c2cccc(Cl)c2)nc2c(C(=O)NC(C)(C)C)ncn12 [III-134] | 2.4 µg/mL (≈ 7 µM) | > 20% | > 60% |  |  |  |
